Assay results reported in patent US6468992B1, “Phosphonic acid diester derivatives” (Otsuka Pharmaceutical Factory, Inc., priority 1998, dated 2002).

Test system: male Wister rats
Assay: blood glucose-lowering activity in dexamethasone-treated rats
Type: in vivo
Conditions: male Wister rats given dexamethasone 0.5 mg/kg i.p. once a day for 4 days; test compound 100 mg/kg orally daily; serum glucose on day 4, 4 hours after dexamethasone, fasted 24 hours; versus control and normal groups
Method: The compounds of the present invention were tested for blood glucose-lowering activities in rats in the following manner.
That is, Dexamethasone (Decadron S injectable solution:made by Banyu Pharmaceutical Co.,Ltd.) was administered intraperitoneally to a group (test group) of 5 male Wister rats (6 weeks old) at a daily dose of 0.5 mg/kg, once a day for 4 days. Immediately after the administration of dexamethasone, a test compound (100 mg/kg) dissolved in 5% gum arabic solution was administered orally to rats daily. On day 4, the rats were decapitated 4 hours after the administration of dexamethasone. Blood was collected and centrifuged (3000 rpm, […], 15 minutes), then the glucose level in the obtained serum was measured by the use of Glucose cII Test Wako (made by Wako Pure Chemical Industries, Ltd.). The rats were maintained on a diet ad libitum and then fasted 24 hours before the collection of blood.
Animals which were given 5% gum arabic solution instead of a test compound were served as a control group and those which were maintained merely on a diet ad libitum were served as a normal group. The serum glucose levels of them were measured according to the same manner as above. The decrease rate of blood glucose level was determined by the value (mean value) of each group from the following equation. [formula]

Row | SMILES | Decrease rate (%) in blood glucose level
1 | CCOP(=O)(CCCC(=O)Nc1cc(Cl)cc(Cl)c1C(=O)NC)OCC [Example 7, diethyl 3-[N-[3,5-dichloro-2-(N-methylcarbamoyl)phenyl]carbamoyl]propylphosphonate] | 30%
2 | CCOP(=O)(CCCC(=O)Nc1c(Cl)cc(Cl)cc1C(=O)NC)OCC [Example 8, diethyl 3-[N-[4,6-dichloro-2-(N-methylcarbamoyl)phenyl]-carbamoyl]propylphosphonate] | 39%
3 | CCOP(=O)(CCCC(=O)Nc1cccc(Cl)c1C(=O)Nc1ccccc1)OCC [Example 31, diethyl 3-[N-[3-chloro-2-(N-phenylcarbamoyl)phenyl]carbamoyl]propylphosphonate] | 59%
4 | CCOP(=O)(OCC)C(=O)Nc1cc(Cl)ccc1C(=O)NC [Example 51, Diethyl N-[5-chloro-2-(N-methylcarbamoyl)phenyl]carbamoyl phosphonate] | 17%
